The results in this text go back to ChEMBL document CHEMBL4342474, “Scaffold and Parasite Hopping: Discovery of New Protozoal Proliferation Inhibitors” (ACS Med Chem Lett, 2020).

Where only a bound is given, the exact number is not on record here.

In data set [1] the test system is Plasmodium falciparum. Put plainly: Antiplasmodial activity against Plasmodium falciparum D6 measured after 72 hrs by SYBR green fluorescence dye based microplate reader analysis. It counts as functional, organism-based. Particulars: D6, 72 h.
Data set [2] has as its system Leishmania major. Put plainly: Antileishmanial activity against Leishmania major amastigotes infected in mouse RAW 264.7 cells by luciferase reporter gene assay. The format is functional, organism-based. Particulars: RAW264.7. Background: Reporter assays use an easily measured gene product as a stand-in for the process of interest.
In data set [3] the test system is Trypanosoma cruzi. Put plainly: Antitrypanosomal activity against Trypanosoma cruzi CaI-72 trypomastigotes infected in mouse C2C12 cells measured after 72 hrs by DAPI staining based assay. The format is functional, organism-based. Particulars: CaI-72, C2C12, 72 h.
Data set [4] in a line: Selectivity index, ratio of TC50 for mouse C2C12 cells to EC50 for antitrypanosomal activity against Trypanosoma cruzi CaI-72 trypomastigotes infected in mouse C2C12 cells. The format is toxicity, cell-based.
A short description of data set [5]: Selectivity index, ratio of TC50 for human HepG2 cells to EC50 for antiplasmodial activity against Plasmodium falciparum D6. It counts as toxicity.
For data set [6], the system named is Leishmania donovani. Nature of the data set: Antileishmanial activity against Leishmania donovani infected in mouse B10R cells after 72 hrs by DAPI staining based assay. It counts as functional, organism-based.
Data set [7] can be described thus: Selectivity index, ratio of TC50 for human HepG2 cells to EC50 for antileishmanial activity against Leishmania major amastigotes infected in mouse RAW 264.7 cells. It counts as toxicity, cell-based.

Regarding `CN1CCN(c2ccc(Nc3ccc4c(Nc5cnccn5)ccnc4c3)cc2)CC1`, the EC50 in data set [1] was 0.13 µM; in data set [2], 7.9 µM.
On to `CN1C[C@H]2C[C@@H]1CN2c1ncc(-c2ccc3c(Nc4cnccn4)ccnc3c2)cn1`, for which the EC50 in data set [1] was 0.052 µM; in data set [3], 6.1 µM; in data set [2], 2.6 µM.
In the case of `O=S(=O)(c1ccc(-c2ccc3nccc(NCCN4CCCC4)c3c2)cc1)N1CCOCC1`, the selectivity ratio amounted to 0.89 in data set [4] and 307 in data set [5]. Also, the EC50 in data set [1] was 0.03 µM; in data set [3] it was 1.9 µM; in data set [2], over 21 µM.
As for `COc1ccc(NC(=O)c2cc(F)c(N3CCCN(C)CC3)cc2F)cc1Cl`, the figures for the selectivity ratio in data set [4] and in data set [5] were 1.6 and over 5.2, respectively. The EC50 was 4.6 µM in data set [1], 5.5 µM in data set [3] and over 24 µM in data set [2].
Consider `COc1ccc(NC(=O)c2ccc(-c3cnc(N4CCCN(C)CC4)nc3)cc2O)cc1Cl`, for which the EC50 is over 10 µM in data set [6], 0.088 µM in data set [1], over 10 µM in data set [3] and over 4.3 µM in data set [2].
Regarding `CCn1cc/c(=N\c2cnccn2)c2ccc(-c3cnc(N4CCCN(C)CC4)nc3)cc21`, the half-maximal effective concentration (EC50) in data set [6] is over 10 µM; in data set [1], 0.17 µM; in data set [3], 3 µM; in data set [2], 23 µM. Besides, the selectivity ratio in data set [4] is 1; in data set [5], over 200; in data set [7], over 1.5.
On to `CN1CCCN(c2ncc(-c3ccc(C(=O)Nc4cccc(Cl)c4F)c(O)c3)cn2)CC1`, for which the selectivity ratio was 1.6 in data set [4] and over 310 in data set [5]. Moreover, the EC50 in data set [1] was 0.071 µM; in data set [3], 3.9 µM; in data set [2], over 2.2 µM.
For `O=S(=O)(c1ccc(-c2ccc3nccc(NCCC4CCOCC4)c3c2)cc1)N1CCOCC1`, the EC50 in data set [6] is over 10 µM; in data set [1] it was 0.075 µM; in data set [3], 4.7 µM; in data set [2], over 21 µM. In addition, the selectivity ratio was 1.3 in data set [4] and over 280 in data set [5].
Take `CN1CC2(CCN(c3ncc(-c4ccc5c(Nc6cnccn6)ccnc5c4)cn3)C2)C1`: the selectivity ratio in data set [4] was 1.9; in data set [5], over 414. Moreover, the EC50 is 0.058 µM in data set [1], 0.22 µM in data set [3] and over 24 µM in data set [2].
For the compound `CN1CCN(c2ncc(-c3ccc4c(NC5CCC(N(C)C)CC5)ccnc4c3)cn2)CC1` (stereo unspecified), the EC50 was over 10 µM in data set [6], 0.053 µM in data set [1], over 10 µM in data set [3] and over 2.2 µM in data set [2].
Take `COc1ccc(NC(=O)c2ccc(-c3cccc(N4CCOCC4)c3)cc2O)cc1Cl`: the EC50 in data set [6] was over 10 µM; in data set [1], over 23 µM; in data set [3], over 10 µM; in data set [2], 0.36 µM. Besides, the selectivity ratio in data set [7] was over 97.
In the case of `COc1ccc(Nc2ccnc3cc(-c4cnc(N5CCCN(C)CC5)nc4)ccc23)cc1Cl`, the EC50 in data set [6] is over 10 µM; in data set [1], 0.006 µM; in data set [3] it was 0.08 µM; in data set [2], 1.6 µM. The results for the selectivity ratio in data set [4], in data set [5] and in data set [7] were 12, 1130 and 4.3, respectively.
As to `Cc1cnc(Nc2ccnc3cc(-c4cnc(N5CCCN(C)CC5)nc4)ccc23)cn1`, the EC50 in data set [1] is 0.024 µM; in data set [2], over 23 µM.
With `CN1CCN(c2ncc(-c3ccc4c(NCCN5CCCC5)ccnc4c3)cn2)CC1`, the EC50 in data set [6] was over 10 µM; in data set [1], 0.024 µM; in data set [3], 2.1 µM; in data set [2], over 24 µM.
As to `CCN1CCN(c2ncc(-c3ccc4c(Nc5cnccn5)ccnc4c3)cn2)CC1`, the EC50 in data set [1] turned out to be 0.029 µM; in data set [3], 7.7 µM; in data set [2], 24 µM.
Consider `CN1CCC2(CCN(c3ncc(-c4ccc5c(Nc6cnccn6)ccnc5c4)cn3)C2)C1` (stereo unspecified), for which the selectivity ratio is 19 in data set [4] and 533 in data set [5]. Moreover, the EC50 in data set [1] was 0.03 µM; in data set [3] it was 0.52 µM; in data set [2] it was over 23 µM.
As to `CCCn1cc/c(=N\c2cnccn2)c2ccc(-c3cnc(N4CCCN(C)CC4)nc3)cc21`, the EC50 in data set [6] is over 10 µM; in data set [1], 0.087 µM; in data set [3], 2.1 µM; in data set [2], 1.5 µM. For the same compound, the selectivity ratio was 1.4 in data set [4], over 379 in data set [5] and over 22 in data set [7].
In the case of `CN1CCCN(c2ncc(-c3ccc4c(Nc5ccccn5)ccnc4c3)cn2)CC1`, the EC50 is over 10 µM in data set [6], 0.039 µM in data set [1], 1.3 µM in data set [3] and over 24 µM in data set [2]. Besides, the selectivity ratio is 7.5 in data set [4] and 487 in data set [5].
As for `CN1CCCN(c2ncc(-c3ccc4c(c3)ncc3c5ccccc5[nH]c43)cn2)CC1`, the selectivity ratio in data set [4] is 6.7; in data set [5], over 161. Moreover, the figures for the EC50 in data set [1], in data set [3] and in data set [2] were 0.046 µM, 0.24 µM and over 5 µM, respectively.
`CCCN1CCN(c2ncc(-c3ccc4c(Nc5cnccn5)ccnc4c3)cn2)CC1`: the EC50 in data set [1] came out at 0.023 µM; in data set [3] it was 7.6 µM; in data set [2], 4.3 µM.
`Cc1cncc(Nc2ccnc3cc(-c4cnc(N5CCCN(C)CC5)nc4)ccc23)n1`: the EC50 in data set [1] is 0.019 µM; in data set [2], 9.2 µM. The selectivity ratio in data set [5] was 947; in data set [7], 2.
`CN1CCN(c2ncc(-c3ccc4c(NC5CCOCC5)ccnc4c3)cn2)CC1`: the EC50 in data set [6] is 4 µM; in data set [1], 0.025 µM; in data set [3], over 10 µM; in data set [2] it was over 25 µM. In addition, the selectivity ratio in data set [5] amounted to 600.
Take `CN1CCN(c2ncc(-c3ccc4/c(=N/c5cnccn5)ccn(C)c4c3)cn2)CC1`: the EC50 in data set [6] was over 10 µM; in data set [1] it was 0.18 µM; in data set [3] it was over 10 µM; in data set [2], 2.3 µM. The selectivity ratio in data set [5] was 133; in data set [7], over 10.
Turning to `CN1CCCN(c2ncc(-c3ccc4c(Nc5cnccn5)ccnc4c3)cn2)CC1`, the figures for the EC50 in data set [1], in data set [3] and in data set [2] were 0.024 µM, 1.2 µM and 24 µM, respectively.
As for `CN1CCN(c2ncc(-c3ccc4c(NCC5CCOCC5)ccnc4c3)cn2)CC1`, the EC50 was 8.7 µM in data set [6], 0.026 µM in data set [1], 1.2 µM in data set [3] and over 24 µM in data set [2]. In addition, the selectivity ratio came out at 3.2 in data set [4] and 615 in data set [5].
For `CN1CCN(c2ncc(-c3ccc4c(N[C@@H]5CCCC[C@H]5O)ccnc4c3)cn2)CC1`, the EC50 in data set [6] was over 10 µM; in data set [1], 0.037 µM; in data set [3] it was over 10 µM; in data set [2] it was over 2.4 µM.
Regarding `CN1CCCN(c2ncc(-c3ccc4c(Nc5cccnc5)ccnc4c3)cn2)CC1`, the half-maximal effective concentration (EC50) in data set [6] is over 10 µM; in data set [1], 0.025 µM; in data set [3], over 10 µM; in data set [2], over 22 µM. Moreover, the selectivity ratio in data set [5] was over 1320.

As usually defined, the EC50 is the concentration giving half of the maximal effect. A lower EC50 goes with greater potency.
